What was measured:
Type in all cases: in vivo
[1] = test system: Chilo suppressalis (Striped Rice Stemborer); experiment: Example B4: Chilo suppressalis (Striped Rice Stemborer), artificial diet; details: 144 h, application rate of 200 ppm, L2 larvae, 6 days after infestation, read-out: control in at least one of the three categories (mortality, anti-feedant or growth inhibition)
Method: Example B4: Chilo suppressalis (Striped Rice Stemborer)
24-well microtiter plates with artificial diet were treated with aqueous test solutions prepared from 10′000 ppm DMSO stock solutions by pipetting. After drying, the plates were infested with L2 larvae (6-8 per well). The samples were assessed for mortality, anti-feeding effect, and growth inhibition in comparison to untreated samples 6 days after infestation. Control of Chilo suppressalis by a test sample is given when at least one of the categories mortality, anti-feedant effect, and growth inhibition is higher than the untreated sample.

[2] = test system: Plutella xylostella (Diamond Back Moth); experiment: Example B5: Plutella xylostella (Diamond Back Moth), artificial diet, 24-well; details: 192 h, application rate of 200 ppm, eggs, 8 days after infestation, read-out: control in at least one of the two categories (mortality or growth inhibition)
Method: Example B5: Plutella xylostella (Diamond Back Moth)
24-well microtiter plates with artificial diet were treated with aqueous test solutions prepared from 10′000 ppm DMSO stock solutions by pipetting. After drying, Plutella eggs were pipetted through a plastic stencil onto a gel blotting paper and the plate was closed with it. The samples were assessed for mortality and growth inhibition in comparison to untreated samples 8 days after infestation.

[3] = test system: Spodoptera littoralis (Egyptian Cotton Leaf Worm); experiment: Example B9: Spodoptera littoralis (Egyptian Cotton Leaf Worm), sprayed cotton leaf discs; details: foliar, 72 h, application rate of 200 ppm, L1 larvae, 3 days after infestation, read-out: control in at least one of the three categories (mortality, anti-feedant or growth inhibition)
[4] = test system: Diabrotica balteata (Corn Root Worm); experiment: Example B1: Diabrotica balteata (Corn Root Worm), sprayed maize sprouts; details: 96 h, application rate of 200 ppm, L2 larvae, 4 days after infestation, read-out: control in at least one of the two categories (mortality or growth inhibition)
Method: Example B1: Diabrotica balteata (Corn Root Worm)
Maize sprouts placed onto an agar layer in 24-well microtiter plates were treated with aqueous test solutions prepared from 10′000 ppm DMSO stock solutions by spraying. After drying, the plates were infested with L2 larvae (6 to 10 per well). The samples were assessed for mortality and growth inhibition in comparison to untreated samples 4 days after infestation.

CC(NC(=O)c1cc(C(F)(F)F)cc(C(C)(C)C#N)c1)c1nccnc1-c1ccc(OCC(F)(F)F)cn1 (centres unmarked) [P10, 3-(1-cyano-1-methyl-ethyl)-N-[1-[3-[5-(2,2,2-trifluoroethoxy)-2-pyridyl]pyrazin-2-yl]ethyl]-5-(trifluoromethyl)benzamide]
≥ 80%: percent control (mortality, anti-feedant effect or growth inhibition) at 200 ppm [1] | percent control (mortality or growth inhibition) at 200 ppm [2] | percent control (mortality, anti-feedant effect or growth inhibition) at 200 ppm [3]

COC1(c2cc(C(=O)NC(C)c3nccnc3-c3ccc(C#N)cn3)cc(C(F)(F)F)c2)CC1 (centres unmarked) [P46, N-[1-[3-(5-cyano-2-pyridyl)pyra-zin-2-yl]ethyl]-3-(1-methoxycyclopropyl)-5-(trifluoromethyl)benzamide]
≥ 80%: percent control (mortality or growth inhibition) at 200 ppm [4] | percent control (mortality, anti-feedant effect or growth inhibition) at 200 ppm [1] | percent control (mortality or growth inhibition) at 200 ppm [2] | percent control (mortality, anti-feedant effect or growth inhibition) at 200 ppm [3]

CC(NC(=O)c1cc(C2CC2)nc(C(F)(F)F)c1)c1nccnc1-c1ccc(C#N)cn1 (centres unmarked) [P17, N-[1-[3-(5-cyano-2-pyridyl)pyra-zin-2-yl]ethyl]-2-cyclopropyl-6-(trifluoromethyl)pyridine-4-carboxamide]
≥ 80%: percent control (mortality, anti-feedant effect or growth inhibition) at 200 ppm [1] | percent control (mortality or growth inhibition) at 200 ppm [2] | percent control (mortality, anti-feedant effect or growth inhibition) at 200 ppm [3]

CC(NC(=O)c1cc(C(F)(F)F)cc(S(=O)(=O)C(F)(F)F)c1)c1nccnc1-c1ncc(OCC(F)(F)F)cn1 (centres unmarked) [P12, N-[1-[3-[5-(2,2,2-trifluoroethoxy)pyrimidin-2-yl]pyrazin-2-yl]ethyl]-3-(trifluoromethyl)-5-(trifluoromethylsulfonyl)benzamide]
≥ 80%: percent control (mortality, anti-feedant effect or growth inhibition) at 200 ppm [1] | percent control (mortality or growth inhibition) at 200 ppm [2] | percent control (mortality, anti-feedant effect or growth inhibition) at 200 ppm [3]

CC(NC(=O)c1cc(C(F)(F)F)cc(C(F)(F)C2CC2)c1)c1nccnc1-c1ccc(OCC(F)F)cn1 (centres unmarked) [P30, 3-[cyclopropyl(difluoro)methyl]-N-[1-[3-[5-(2,2-difluoroethoxy)-2-pyridyl]pyrazin-2-yl]ethyl]-5-(trifluoromethyl)benzamide]
≥ 80%: percent control (mortality or growth inhibition) at 200 ppm [2]

CC(NC(=O)c1cc(C2CC2)cc(C(F)(F)F)c1)c1nccnc1-c1ccc(C#N)cn1 (centres unmarked) [P14, N-[1-[3-(5-cyano-2-pyridyl)pyra-zin-2-yl]ethyl]-3-cyclopropyl-5-(trifluoromethyl)benzamide]
≥ 80%: percent control (mortality, anti-feedant effect or growth inhibition) at 200 ppm [1] | percent control (mortality or growth inhibition) at 200 ppm [2] | percent control (mortality, anti-feedant effect or growth inhibition) at 200 ppm [3]

CC(NC(=O)c1cc(C(F)(F)F)nc(C2(C#N)CC2)c1)c1nccnc1-c1ccc(C#N)cn1 (centres unmarked) [P16, 2-(1-cyanocyclopropyl)-N-[1-[3-(5-cyano-2-pyridyl)pyrazin-2-yl]eth-yl]-6-(trifluoromethyl)pyridine-4-carboxamide]
≥ 80%: percent control (mortality or growth inhibition) at 200 ppm [4] | percent control (mortality, anti-feedant effect or growth inhibition) at 200 ppm [1] | percent control (mortality or growth inhibition) at 200 ppm [2] | percent control (mortality, anti-feedant effect or growth inhibition) at 200 ppm [3]

CC(NC(=O)c1cc(C(F)(F)F)cc(C(C)(C)C#N)c1)c1nccnc1-c1ncc(OC(F)F)cn1 (centres unmarked) [P8, 3-(1-cyano-1-methyl-ethyl)-N-[1-[3-[5-(difluoromethoxy)pyrimidin-2-yl]pyrazin-2-yl]ethyl]-5-(trifluoromethyl)benzamide]
≥ 80%: percent control (mortality or growth inhibition) at 200 ppm [4] | percent control (mortality, anti-feedant effect or growth inhibition) at 200 ppm [1] | percent control (mortality or growth inhibition) at 200 ppm [2] | percent control (mortality, anti-feedant effect or growth inhibition) at 200 ppm [3]

CC(NC(=O)c1cc(OC(F)(F)F)cc(C2(C#N)CC2)c1)c1nccnc1-c1ccc(C#N)cn1 (centres unmarked) [P45, 3-(1-cyanocyclopropyl)-N-[1-[3-(5-cyano-2-pyridyl)pyrazin-2-yl]ethyl]-5-(trifluorometh-oxy)benzamide]
≥ 80%: percent control (mortality, anti-feedant effect or growth inhibition) at 200 ppm [1] | percent control (mortality or growth inhibition) at 200 ppm [2]

CC(NC(=O)c1cc(C(F)(F)F)cc(C2(C#N)CC2)c1)c1nccnc1-c1ccc(OC(F)F)cn1 (centres unmarked) [P3, 3-(1-cyanocyclopropyl)-N-[1-[3-[5-(difluoromethoxy)-2-pyridyl]pyrazin-2-yl]ethyl]-5-(trifluoromethyl)benzamide]
≥ 80%: percent control (mortality or growth inhibition) at 200 ppm [4] | percent control (mortality, anti-feedant effect or growth inhibition) at 200 ppm [1] | percent control (mortality or growth inhibition) at 200 ppm [2] | percent control (mortality, anti-feedant effect or growth inhibition) at 200 ppm [3]

C[C@H](NC(=O)c1cc(C(F)(F)F)cc(C(F)(F)C2CC2)c1)c1nccnc1-c1ccc(C#N)cn1 [P42, N-[(1S)-1-[3-(5-cyano-2-pyridyl)pyrazin-2-yl]ethyl]-3-[cyclopropyl(difluoro)methyl]-5-(trifluoromethyl)benzamide]
≥ 80%: percent control (mortality or growth inhibition) at 200 ppm [4] | percent control (mortality, anti-feedant effect or growth inhibition) at 200 ppm [1] | percent control (mortality or growth inhibition) at 200 ppm [2] | percent control (mortality, anti-feedant effect or growth inhibition) at 200 ppm [3]

CC(NC(=O)c1cc(C(F)(F)F)cc(S(=O)(=O)C(F)(F)F)c1)c1nccnc1-c1ccc(OC(F)F)cn1 (centres unmarked) [P11, N-[1-[3-[5-(difluoromethoxy)-2-pyridyl]pyrazin-2-yl]ethyl]-3-(trifluoromethyl)-5-(trifluoromethylsulfonyl)benzamide]
≥ 80%: percent control (mortality, anti-feedant effect or growth inhibition) at 200 ppm [1] | percent control (mortality or growth inhibition) at 200 ppm [2] | percent control (mortality, anti-feedant effect or growth inhibition) at 200 ppm [3]

C[C@@H](c1nccnc1-c1ccc(C#N)cn1)N(CC1CC1)C(=O)c1cc(C(F)(F)F)cc(C(F)(F)C2CC2)c1 [P43, N-[(1S)-1-[3-(5-cyano-2-pyridyl)pyrazin-2-yl]ethyl]-3-[cyclopropyl(difluoro)methyl]-N-(cyclopropylmethyl)-5-(trifluoromethyl)benzamide]
≥ 80%: percent control (mortality or growth inhibition) at 200 ppm [4] | percent control (mortality, anti-feedant effect or growth inhibition) at 200 ppm [1] | percent control (mortality or growth inhibition) at 200 ppm [2] | percent control (mortality, anti-feedant effect or growth inhibition) at 200 ppm [3]

CC(NC(=O)c1cc(C2CC2)cc(C(F)(F)F)c1)c1nccnc1-c1ccc(OC(F)F)cn1 (centres unmarked) [P7, 3-cyclopropyl-N-[1-[3-[5-(difluoromethoxy)-2-pyridyl]pyrazin-2-yl]ethyl]-5-(trifluoromethyl)benzamide]
≥ 80%: percent control (mortality or growth inhibition) at 200 ppm [4] | percent control (mortality, anti-feedant effect or growth inhibition) at 200 ppm [1] | percent control (mortality or growth inhibition) at 200 ppm [2] | percent control (mortality, anti-feedant effect or growth inhibition) at 200 ppm [3]

CC(NC(=O)c1cc(C(F)(F)F)cc(C(F)(F)C2CC2)c1)c1nccnc1-c1ccc(OC(F)F)cn1 (centres unmarked) [P5, 3-[cyclopropyl(difluoro)methyl]-N-[1-[3-[5-(difluoromethoxy)-2-pyridyl]pyrazin-2-yl]ethyl]-5-(trifluoromethyl)benzamide]
≥ 80%: percent control (mortality, anti-feedant effect or growth inhibition) at 200 ppm [1] | percent control (mortality or growth inhibition) at 200 ppm [2] | percent control (mortality, anti-feedant effect or growth inhibition) at 200 ppm [3]

CC(NC(=O)c1cc(C(F)(F)F)cc(C(F)(F)C2CC2)c1)c1nccnc1-c1ccc(C#N)cn1 (centres unmarked) [P18, N-[1-[3-(5-cyano-2-pyridyl)pyra-zin-2-yl]ethyl]-3-[cyclopropyl(difluoro)methyl]-5-(trifluoromethyl)benzamide]
≥ 80%: percent control (mortality, anti-feedant effect or growth inhibition) at 200 ppm [1] | percent control (mortality or growth inhibition) at 200 ppm [2] | percent control (mortality, anti-feedant effect or growth inhibition) at 200 ppm [3]

CC(NC(=O)c1cc(C2CC2)cc(C(F)(F)F)c1)c1nccnc1-c1ncc(OCC(F)(F)F)cn1 (centres unmarked) [P6, 3-cyclopropyl-N-[1-[3-[5-(2,2,2-trifluoroethoxy)pyrimidin-2-yl]pyrazin-2-yl]ethyl]-5-(trifluoromethyl)benzamide]
≥ 80%: percent control (mortality or growth inhibition) at 200 ppm [4] | percent control (mortality, anti-feedant effect or growth inhibition) at 200 ppm [1] | percent control (mortality or growth inhibition) at 200 ppm [2] | percent control (mortality, anti-feedant effect or growth inhibition) at 200 ppm [3]

CC(NC(=O)c1cc(C(F)(F)F)cc(S(=O)(=O)C(F)(F)F)c1)c1nccnc1-c1ccc(C#N)cn1 (centres unmarked) [P15, N-[1-[3-(5-cyano-2-pyridyl)pyra-zin-2-yl]ethyl]-3-(trifluoromethyl)-5-(trifluoromethylsulfonyl)benza-mide]
≥ 80%: percent control (mortality, anti-feedant effect or growth inhibition) at 200 ppm [1] | percent control (mortality or growth inhibition) at 200 ppm [2] | percent control (mortality, anti-feedant effect or growth inhibition) at 200 ppm [3]

CC(NC(=O)c1cc(C2CC2)nc(C(F)(F)F)c1)c1nccnc1-c1ncc(OCC(F)F)cn1 (centres unmarked) [P35, 2-cyclopropyl-N-[1-[3-[5-(2,2-difluoroethoxy)pyrimidin-2-yl]pyrazin-2-yl]ethyl]-6-(trifluoromethyl)pyridine-4-carboxamide]
≥ 80%: percent control (mortality, anti-feedant effect or growth inhibition) at 200 ppm [1] | percent control (mortality or growth inhibition) at 200 ppm [2] | percent control (mortality, anti-feedant effect or growth inhibition) at 200 ppm [3]

— patent publication US12281095B2, “Pesticidally active diazine-amide compounds” (SYNGENTA CROP PROTECTION AG, priority 2019, dated 2025)
